As a reminder, the DC50 is the concentration giving 50% degradation. The low end stands for a more potent degrader, the high end for a less potent degrader.

Molecules are shown by their SMILES.

This note sets out measurements from patent US20240343733A1, “COMPOUNDS FOR TARGETING DEGRADATION OF IRAK4 PROTEINS” (BIOGEN MA INC., priority 2021, published 2024).

In one experiment the target is T1, IRAK4 (Homo sapiens, UniProt Q9NWZ3).
T1 construct: 293Tcells expressing HiBiT-tagged IRAK4 were then added into 384-well plates
T1 sequence (Q9NWZ3 1-460): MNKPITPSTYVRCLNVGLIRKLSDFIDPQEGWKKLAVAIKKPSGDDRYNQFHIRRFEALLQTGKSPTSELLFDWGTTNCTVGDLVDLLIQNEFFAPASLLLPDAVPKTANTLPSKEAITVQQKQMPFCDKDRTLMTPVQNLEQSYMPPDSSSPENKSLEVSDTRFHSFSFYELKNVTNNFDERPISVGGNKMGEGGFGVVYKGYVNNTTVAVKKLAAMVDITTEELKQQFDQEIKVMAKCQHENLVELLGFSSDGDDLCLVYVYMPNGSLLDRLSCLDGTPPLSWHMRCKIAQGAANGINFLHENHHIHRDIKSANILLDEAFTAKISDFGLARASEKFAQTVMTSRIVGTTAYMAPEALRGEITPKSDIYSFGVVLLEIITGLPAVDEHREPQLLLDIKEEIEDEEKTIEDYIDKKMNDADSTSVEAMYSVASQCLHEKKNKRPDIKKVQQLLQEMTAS
The experiment in a line: IRAK4 Degradation Assay, HiBiT Method. Format: cell-based. The following applies: 293T cells expressing HiBiT-tagged IRAK4, 6 hours. Put shortly: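 293T cells with HiBiT knocked in at the C-terminus of endogenous IRAK4, 10,000 per well, treated 6 h at 37 °C with an 11-point half-log series ([…]), in duplicate. Remaining IRAK4 read by Nano-Glo HiBiT lytic luminescence against DMSO-only and media-only controls.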

In another experiment the target is T2, IKZF1 (Homo sapiens, UniProt Q13422).
T2 construct: endogenously expressing IKZF1 with HiBiT fusion tag via CRISPR
Nature of the experiment: IKZF1 Degradation Assay, HiBiT Method. It counts as cell-based. The conditions noted are these: NCIH929 cells expressing HiBiT-tagged IKZF1, 6 hours, top concentration 10 μM. The method, then:
Assay 2. IKZF1 Degradation Assay, HiBiT Method
Selected compounds of this disclosure were tested in an IKZF1 degradation assay using the HiBiT Method.
RPMI no-phenol red medium and fetal bovine serum (FBS) were purchased from Gibco (Grand Island, NY, USA). Nano-Glo® HiBiT Lytic Assay System was purchased from Promega (Madison, WI, USA). […] Cell culture flasks and 384-well microplates were acquired from VWR (Radnor, PA, USA).
IKZF1 degradation was determined based on quantification of luminescent signal using Nano-Glo® HiBiT Lytic Assay kit. […] NCIH929 cells expressing HiBiT-tagged IKZF1 were added into 384-well plates in RPMI medium containing 10% FBS and 0.05 mM 2-mercaptoethanol at a cell density of 15000 cells per well. The plates were kept at 37° C. with 5% CO2 for 6 hours. Cells treated in the absence of the test compound were the negative control and wells containing media only were the positive control. After 6-hour incubation, Nano-Glo® HiBiT Lytic Assay reagents were added to the designated wells. Luminescence was acquired on EnVision® Multilabel Reader (PerkinElmer, Santa Clara, CA, USA).
In general terms: With HiBiT, luminescence reflects the tagged protein that the partner subunit can reach.

T2 sequence (Q96SW2 whole entry partner, the tested form may be a part): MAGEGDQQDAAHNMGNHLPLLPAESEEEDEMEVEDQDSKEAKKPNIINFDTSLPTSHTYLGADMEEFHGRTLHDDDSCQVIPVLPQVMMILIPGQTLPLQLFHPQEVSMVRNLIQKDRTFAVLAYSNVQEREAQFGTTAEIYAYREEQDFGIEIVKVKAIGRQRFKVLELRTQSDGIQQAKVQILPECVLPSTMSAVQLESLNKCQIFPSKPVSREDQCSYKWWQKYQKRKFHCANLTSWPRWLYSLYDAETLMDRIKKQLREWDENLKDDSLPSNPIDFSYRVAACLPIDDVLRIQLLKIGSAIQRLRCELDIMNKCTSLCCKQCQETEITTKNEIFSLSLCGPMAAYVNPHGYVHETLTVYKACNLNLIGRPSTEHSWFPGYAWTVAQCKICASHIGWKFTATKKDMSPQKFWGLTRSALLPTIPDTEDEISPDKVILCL
T2 sequence (Q16531 whole entry partner, the tested form may be a part): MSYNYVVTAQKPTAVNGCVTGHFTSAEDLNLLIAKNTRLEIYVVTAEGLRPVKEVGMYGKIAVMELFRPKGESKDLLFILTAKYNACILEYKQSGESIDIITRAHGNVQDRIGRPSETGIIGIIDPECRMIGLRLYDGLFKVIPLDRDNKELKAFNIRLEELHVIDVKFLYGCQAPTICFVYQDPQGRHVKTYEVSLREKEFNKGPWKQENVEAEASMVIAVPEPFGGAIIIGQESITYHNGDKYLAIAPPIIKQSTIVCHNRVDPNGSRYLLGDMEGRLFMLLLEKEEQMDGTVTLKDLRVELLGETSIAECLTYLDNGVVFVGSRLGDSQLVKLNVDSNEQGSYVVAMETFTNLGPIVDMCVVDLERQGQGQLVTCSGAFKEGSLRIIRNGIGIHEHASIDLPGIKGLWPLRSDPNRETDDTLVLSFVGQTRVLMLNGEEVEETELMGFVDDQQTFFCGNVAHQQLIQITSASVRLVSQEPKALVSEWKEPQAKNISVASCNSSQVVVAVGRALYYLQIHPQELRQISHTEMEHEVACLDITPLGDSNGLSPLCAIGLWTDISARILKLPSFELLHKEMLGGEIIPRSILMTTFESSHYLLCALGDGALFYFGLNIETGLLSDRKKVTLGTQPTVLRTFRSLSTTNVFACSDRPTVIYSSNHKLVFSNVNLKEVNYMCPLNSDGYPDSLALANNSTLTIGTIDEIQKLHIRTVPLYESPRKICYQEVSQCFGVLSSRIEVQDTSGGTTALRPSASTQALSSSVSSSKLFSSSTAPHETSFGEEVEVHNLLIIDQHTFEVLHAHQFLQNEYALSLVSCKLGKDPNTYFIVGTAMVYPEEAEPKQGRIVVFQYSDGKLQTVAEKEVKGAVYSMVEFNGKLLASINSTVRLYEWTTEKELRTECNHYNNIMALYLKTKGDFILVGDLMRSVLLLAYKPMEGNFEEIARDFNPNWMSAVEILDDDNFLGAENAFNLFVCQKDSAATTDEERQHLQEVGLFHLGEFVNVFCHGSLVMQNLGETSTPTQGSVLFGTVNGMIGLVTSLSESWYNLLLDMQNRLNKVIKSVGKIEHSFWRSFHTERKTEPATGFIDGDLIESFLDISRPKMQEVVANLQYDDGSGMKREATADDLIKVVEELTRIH
T2 sequence (Q13422 whole entry, the tested form may be a part): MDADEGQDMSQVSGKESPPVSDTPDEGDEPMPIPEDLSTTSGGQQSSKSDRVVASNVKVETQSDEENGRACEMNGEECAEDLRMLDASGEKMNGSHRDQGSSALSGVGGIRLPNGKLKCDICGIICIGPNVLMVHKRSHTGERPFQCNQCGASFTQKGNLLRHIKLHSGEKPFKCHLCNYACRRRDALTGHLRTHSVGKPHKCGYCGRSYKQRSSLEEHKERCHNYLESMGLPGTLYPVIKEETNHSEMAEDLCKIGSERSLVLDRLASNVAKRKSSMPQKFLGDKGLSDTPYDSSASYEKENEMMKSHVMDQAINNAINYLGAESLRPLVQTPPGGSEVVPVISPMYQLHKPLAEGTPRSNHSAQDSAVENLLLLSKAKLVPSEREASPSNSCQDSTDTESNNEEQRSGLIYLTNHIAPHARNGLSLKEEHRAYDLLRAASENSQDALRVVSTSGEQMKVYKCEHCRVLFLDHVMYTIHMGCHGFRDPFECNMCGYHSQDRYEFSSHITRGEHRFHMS

Regarding `CC(C)Oc1cc2nn([C@H]3CC[C@H](CN4CCC(c5ccc6c(c5)n(C)c(=O)n6C5CCC(=O)NC5=O)C(F)(F)C4)CC3)cc2cc1C(=O)Nc1cnn2cccnc12` (some centres unmarked) [Example 123, 2-((1r,4r)-4-((4-(1-(2,6-dioxopiperidin-3-yl)-3-methyl-2-oxo-2,3-dihydro-1H-benzo[d]imidazol-5-yl)-3,3-difluoropiperidin-1-yl)methyl)cyclohexyl)-6-isopropoxy-N-(pyrazolo[1,5-a]pyrimidin-3-yl)-2H-indazole-5-carboxamide], the figures for the DC50 at IRAK4 and on IKZF1 were less than 10 nM and more than 10000 nM, respectively.
The like results for `CC(C)Oc1cc2nn([C@H]3CC[C@H](CN4CCC(c5ccc(O[C@H]6CCC(=O)NC6=O)cc5)CC4)CC3)cc2cc1C(=O)Nc1cccn(C2CC2)c1=O` (single isomer, unassigned) [Example 142] were, in that order, less than 10 nM and more than 10000 nM.
The like results for `CC(C)Oc1cc2nc(C3CCC(CN4CCC(c5ccc(C6CCC(=O)NC6=O)cc5F)CC4)CC3)cn2cc1C(=O)Nc1cnn2cccnc12` (centres unmarked) [Example 47, 2-[4-[[4-[4-(2,6-dioxo-3-piperidyl)-2-fluoro-phenyl]-1-piperidyl]methyl]cyclohexyl]-7-isopropoxy-N-pyrazolo[1,5-a]pyrimidin-3-yl-imidazo[1,2-a]pyridine-6-carboxamide] were, in that order, less than 10 nM and more than 10000 nM.
The like results for `CC(C)Oc1cc2nn([C@H]3CC[C@H](CN4CCC(c5ccc(OC6CCC(=O)NC6=O)cc5)CC4)CC3)cc2cc1C(=O)Nc1cccn(C2CC2)c1=O` (some centres unmarked) [Example 113, N-(1-cyclopropyl-2-oxo-1,2-dihydropyridin-3-yl)-2-((1r,4r)-4-((4-(4-((2,6-dioxopiperidin-3-yl)oxy)phenyl)piperidin-1-yl)methyl)cyclohexyl)-6-isopropoxy-2H-indazole-5-carboxamide] were, in that order, less than 10 nM and more than 10000 nM.
With `CC(C)Oc1cc2nc(C3CCN(CC(=O)N4CCC(c5ccc(NC6CCC(=O)NC6=O)cc5)CC4)CC3)cn2cc1C(=O)Nc1cnn2cccnc12` (centres unmarked) [Example 104, 2-[1-[2-[4-[4-[(2,6-dioxo-3-piperidyl)amino]phenyl]-1-piperidyl]-2-oxo-ethyl]-4-piperidyl]-7-isopropoxy-N-pyrazolo[1,5-a]pyrimidin-3-yl-imidazo[1,2-a]pyridine-6-carboxamide], the DC50 is less than 10 nM at IRAK4 and more than 10000 nM on IKZF1.
The like results for `CC(C)Oc1cc2nn([C@H]3CC[C@H](CN4CCC(c5ccc(OC6CCC(=O)NC6=O)cc5)CC4)CC3)cc2cc1C(=O)Nc1cnn2cccnc12` (some centres unmarked) [Example 115, 2-((1r,4r)-4-((4-(4-((2,6-dioxopiperidin-3-yl)oxy)phenyl)piperidin-1-yl)methyl)cyclohexyl)-6-isopropoxy-N-(pyrazolo[1,5-a]pyrimidin-3-yl)-2H-indazole-5-carboxamide] were, in that order, less than 10 nM and more than 10000 nM.
In the same order, the values of `CC(C)Oc1cc2nc([C@H]3CC[C@H](CN4CCC(c5ccc6c(N7CCC(=O)NC7=O)nn(C)c6c5)CC4)CC3)cn2cc1C(=O)Nc1cccc(C(F)F)n1` [Example 38, N-[6-(difluoromethyl)-2-pyridyl]-2-[4-[[4-[3-(2,4-dioxohexahydropyrimidin-1-yl)-1-methyl-indazol-6-yl]-1-piperidyl]methyl]cyclohexyl]-7-isopropoxy-imidazo[1,2-a]pyridine-6-carboxamide] are less than 10 nM and more than 10000 nM.
With `CC(C)Oc1cc2nn([C@H]3CC[C@H](CN4CCC(c5ccc6c(c5)n(C)c(=O)n6C5CCC(=O)NC5=O)C(F)(F)C4)CC3)cc2cc1C(=O)Nc1cccn([C@H]2C[C@H]2F)c1=O` (stereo partly drawn) [Example 122, 2-((1r,4S)-4-((4-(1-(2,6-dioxopiperidin-3-yl)-3-methyl-2-oxo-2,3-dihydro-1H-benzo[d]imidazol-5-yl)-3,3-difluoropiperidin-1-yl)methyl)cyclohexyl)-N-(1-((1S,2R)-2-fluorocyclopropyl)-2-oxo-1,2-dihydropyridin-3-yl)-6-isopropoxy-2H-indazole-5-carboxamide], the DC50 on IRAK4 is less than 10 nM; on IKZF1 it was more than 10000 nM.
Take `CC(C)Oc1cc2nc([C@H]3CC[C@H](CN4CCC(c5ccc(OC6CCC(=O)NC6=O)cc5)CC4)CC3)cn2cc1C(=O)Nc1cccc(C(F)F)n1` (some centres unmarked) [Example 31, N-[6-(difluoromethyl)-2-pyridyl]-2-[4-[[4-[4-[(2,6-dioxo-3-piperidyl)oxy]phenyl]-1-piperidyl]methyl]cyclohexyl]-7-isopropoxy-imidazo[1,2-a]pyridine-6-carboxamide]: the half-maximal degradation concentration (DC50) at IRAK4 is 10 to 100 nM; at IKZF1, more than 10000 nM.
In the same order, the values of `CC(C)Oc1cc2nc([C@H]3CC[C@H](CN4CCC(c5ccc(C6CCC(=O)NC6=O)cc5F)CC4)CC3)cn2cc1C(=O)Nc1cccc(C(F)F)n1` (some centres unmarked) [Example 23, N-[6-(difluoromethyl)-2-pyridyl]-2-[4-[[4-[4-(2,6-dioxo-3-piperidyl)-2-fluoro-phenyl]-1-piperidyl]methyl]cyclohexyl]-7-isopropoxy-imidazo[1,2-a]pyridine-6-carboxamide] are 10 to 100 nM and more than 10000 nM.
In the same order, the values of `CC(C)Oc1cc2nc(C3CCN(CC(=O)N4CCC(c5ccc(NC6CCC(=O)NC6=O)cc5)CC4)CC3)cn2cc1C(=O)Nc1ccn(C)n1` (centres unmarked) [Example 108, 2-[1-[2-[4-[4-[(2,6-dioxo-3-piperidyl)amino]phenyl]-1-piperidyl]-2-oxo-ethyl]-4-piperidyl]-7-isopropoxy-N-(1-methylpyrazol-3-yl)imidazo[1,2-a]pyridine-6-carboxamide] are 10 to 100 nM and more than 10000 nM.
Turning to `Cc1cnc2c(NC(=O)c3cn4cc([C@H]5CC[C@H](CN6CCC(c7ccc(OC8CCC(=O)NC8=O)cc7)CC6)CC5)nc4cc3OC(C)C)cnn2c1` (some centres unmarked) [Example 52, 2-[4-[[4-[4-[(2,6-dioxo-3-piperidyl)oxy]phenyl]-1-piperidyl]methyl]cyclohexyl]-7-isopropoxy-N-(6-methylpyrazolo[1,5-a]pyrimidin-3-yl)imidazo[1,2-a]pyridine-6-carboxamide], the figures for the DC50 on IRAK4 and at IKZF1 were less than 10 nM and more than 10000 nM, respectively.
Regarding `CC(C)Oc1cc2nc(C3CCN(CC(=O)N4CCC(c5ccc(C6CCC(=O)NC6=O)cc5)CC4)CC3)cn2cc1C(=O)Nc1cnn2cccnc12` (centres unmarked) [Example 96, 2-[1-[2-[4-[4-(2,6-dioxo-3-piperidyl)phenyl]-1-piperidyl]-2-oxo-ethyl]-4-piperidyl]-7-isopropoxy-N-pyrazolo[1,5-a]pyrimidin-3-yl-imidazo[1,2-a]pyridine-6-carboxamide], the DC50 at IRAK4 is 10 to 100 nM; at IKZF1 it was more than 10000 nM.
In the same order, the values of `CC(C)Oc1cc2nc(C3CCN(C(=O)CC4(O)CCN(c5ccc(NC6CCC(=O)NC6=O)cc5)CC4)CC3)cn2cc1C(=O)Nc1cccc(C(F)F)n1` (centres unmarked) [Example 71, N-[6-(difluoromethyl)-2-pyridyl]-2-[1-[2-[1-[4-[(2,6-dioxo-3-piperidyl)amino]phenyl]-4-hydroxy-4-piperidyl]acetyl]-4-piperidyl]-7-isopropoxy-imidazo[1,2-a]pyridine-6-carboxamide] are 10 to 100 nM and more than 10000 nM.
The like results for `CC(C)Oc1cc2nn([C@H]3CC[C@H](CN4CCN(c5ccc(C6CCC(=O)NC6=O)cn5)CC(O)C4)CC3)cc2cc1C(=O)Nc1cccn([C@H]2C[C@H]2F)c1=O` (stereo partly drawn) [Example 120, 2-((1r,4S)-4-((4-(5-(2,6-dioxopiperidin-3-yl)pyridin-2-yl)-6-hydroxy-1,4-diazepan-1-yl)methyl)cyclohexyl)-N-(1-((1S,2R)-2-fluorocyclopropyl)-2-oxo-1,2-dihydropyridin-3-yl)-6-isopropoxy-2H-indazole-5-carboxamide] were, in that order, less than 10 nM and more than 10000 nM.
In the same order, the values of `CC(C)Oc1cc2nn([C@H]3CC[C@H](CN4CCOC[C@H]4Cc4ccc(OC5CCC(=O)NC5=O)cc4)CC3)cc2cc1C(=O)Nc1cccn([C@H]2C[C@H]2F)c1=O` (stereo partly drawn) [Example 128, 2-((1R,4S)-4-(((3R)-3-(4-((2,6-dioxopiperidin-3-yl)oxy)benzyl)morpholino)methyl)cyclohexyl)-N-(1-((1S,2R)-2-fluorocyclopropyl)-2-oxo-1,2-dihydropyridin-3-yl)-6-isopropoxy-2H-indazole-5-carboxamide] are less than 10 nM and more than 10000 nM.
